The values below come from patent US6355627B1, “Branched cyclodextrin clathrate compound of hinokitiols and composition containing the same” (Takasago International Corporation, priority 1999, dated 2002).

Molecules are shown by their SMILES. Values after ≈ are worked out from the molar mass of the structure shown. Bounds are passed on as bounds.

In general, MIC refers to the least concentration at which growth counts as inhibited. The low end stands for a more susceptible organism, the high end for a less susceptible organism.

The nature of series [1]: Evaluation of the heat stability (sublimation). The following applies: 1000 mg allowed to stand at 90° C. for 20 hours. It is filed as physicochemical. The text has this: The results of the residual weight, sublimation rate (%) and sublimation rate (%) converted into a hinokitiol were shown in Table 4.
Series [2] concerns Malassezia furfur IFO 0656. Nature of the series: Antibacterial test, serial double dilution method (MIC). It is filed as cell-based. The following applies: Muller-Hilton agar, 37° C., 24 hours, concentration converted into hinokitiol. The text has this:
(§1) The clathrate compound of the present invention and non-clathrate compounds were each subjected to an antibacterial test. Aerobic and anaerobic bacteria used in the test are as follows:
Mf: Malassezia furfur IFO 0656
(§2) The samples used in the antibacterial test are as follows in which butylparabene was used as a control compound. The concentrations of clathrate compounds were all measured by converting into the concentrations of a hinokitiol. Samples of antibacterial agents
(§3) Method: Serial Double Dilution Method
(§4) As for the culture medium, an aqueous solution containing 38 g/l of a Muller-Hilton agar medium (manufactured by DEFCO) was used for aerobic bacteria and an aqueous solution containing 59 g/l of a GAM agar medium (manufactured by Nissui Pharmaceutical Co., Ltd.) for anaerobic bacteria. Each subject compound was added to each corresponding medium in a manner that the concentration of a hinokitiol was 400 μg/ml and diluted according to the serial double dilution method using the same medium. 10 ml of each resulting medium was poured into a plastic Schale with an inside diameter of 90 mm and was solidified. The solidified medium in the Schale was divided. 0.1 ml of a distilled water suspension containing the subject microorganisms (the number of microorganisms: 10^6-10^9/ml) was inoculated into each compartment and incubated at 37° C. for 24 hours. […]

Series [3] in a line: Solubility in water at 15° C. It is filed as physicochemical. The method, then:
The solubilities of the above various branched CD clathrate compounds prepared in the above examples and reference example in water at 15° C. are shown in Table 1.

Series [4] relates to Corynebacterium minutissiumum ATCC 23348. As to the kind of experiment: Antibacterial test, serial double dilution method (MIC). It is filed as cell-based. The settings on record: Muller-Hilton agar, 37° C., 24 hours, concentration converted into hinokitiol.
From the text: as §1
Cm: Corynebacterium minutissiumum ATCC 23348
as §2, §3, §4

Series [5] deals with Escherichia coli IFO 3972. The series is described as above. In kind it is cell-based. The settings on record: Muller-Hilton agar, 37° C., 24 hours, concentration converted into hinokitiol.
From the text: as §1
Ec: Escherichia coli IFO 3972
as §2, §3, §4

In series [6] the test system is Corinebacterium xerosis JCM 1324. Described as above. It is filed as cell-based. The following applies: Muller-Hilton agar, 37° C., 24 hours; concentration converted into hinokitiol.
From the text: as §1
Cx: Corinebacterium xerosis JCM 1324
as §2, §3, §4

For series [7], the system named is Staphylococcus aureus IAM 1011. The series is described as above. In kind it is cell-based. The following applies: Muller-Hilton agar, 37° C., 24 hours, concentration converted into hinokitiol.
From the text: as §1
Sa: Staphylococcus aureus IAM 1011
as §2, §3, §4

The subject of series [8] is Serratia marcessenes IFO 3736. The series is described as above. In kind it is cell-based. The following applies: Muller-Hilton agar, 37° C., 24 hours, concentration converted into hinokitiol.
From the text: as §1
Sm: Serratia marcessenes IFO 3736
as §2, §3, §4

For series [9], the system named is Proteus vulgaris IFO 3167. Described as above. It is filed as cell-based. The following applies: Muller-Hilton agar, 37° C., 24 hours, concentration converted into hinokitiol.
From the text: as §1
Pv: Proteus vulgaris IFO 3167
as §2, §3, §4

The subject of series [10] is Staphylococcus epidermidis JCM 2414. The series is described as above. In kind it is cell-based. The following applies: JCM2414, Muller-Hilton agar, 37° C., 24 hours, concentration converted into hinokitiol.
From the text: as §1
Se: Staphylococcus epidermidis JCM 2414
as §2, §3, §4

In series [1], `CC(C)c1cccc(=O)c([O-])c1.[Na+]` [sodium salt of hinokitiol] came in with a Residual weight of 764 mg and a Sublimation rate of 23.6%.

On to `CC(C)c1cccc(=O)c(O)c1` [Hinokitiol], for which the MIC in [2] (Malassezia furfur, IFO0656) amounted to 50 mg/L (≈ 304 µM); in series [4] (Corynebacterium, ATCC23348), 50 mg/L (≈ 304 µM); in [5] (Escherichia coli, IFO3972) it was 50 mg/L (≈ 304 µM); in [6] it was 50 mg/L (≈ 304 µM); in series [7] (Staphylococcus aureus, IAM1011) it was 50 mg/L (≈ 304 µM); in series [8] (Serratia, IFO3736), 200 mg/L (≈ 1220 µM). Also, the MIC came out at 50 mg/L (≈ 304 µM) in [9] (Proteus vulgaris, IFO3167) and 50 mg/L (≈ 304 µM) in [10]. Moreover, in series [3], the Solubility in water is recorded as under 0.05%. For the same compound, the Residual weight in [1] turned out to be 8 mg. The same compound yielded a Sublimation rate in series [1] of 99.2%.

As for `CCCCOC(=O)c1ccc(O)cc1` [Butylparabene], the “MIC, Mf” value in series [2] came to 100 mg/L (≈ 515 µM). In addition, the “MIC, Cm” value in [4] came to 100 mg/L (≈ 515 µM). Besides, the “MIC, Ec” value in series [5] is 400 mg/L (≈ 2060 µM). Besides, in series [6], the “MIC, Cx” value is 100 mg/L (≈ 515 µM). The “MIC, Sa” value in [7] amounted to 100 mg/L (≈ 515 µM). Also, the “MIC, Sm” value in series [8] is over 400 mg/L. Also, the “MIC, Pv” value in series [9] stood at 100 mg/L (≈ 515 µM).
